Data as given in patent US4806532A, “Inhibition of epithelial phosphate transport” (Mayo Foundation for Medical Education and Research, priority 1985, dated 1989).
Counter-ions that a name gives are not always drawn.

Assays:
[1] = system: D-[^3 H]--glucose uptake by BBMV from rat small intestine; test: D-[3H]-glucose uptake by intestinal BBMV; assay type: biochemical; conditions: 1 mM; for D-[3H]-glucose uptake 120 min: control 57 ± 2; for D-[3H]-glucose uptake 15 sec: control 67 ± 0.5
Experimental: The intestinal BBMV fractions were prepared from mucosa of rat small intestine of rats using the modified magnesium- precipitation method as described by B. Steiger and H. Murer [Eur. J. Biochem., 135, 95 (1983)]. This intestinal BBMV fraction is analogous to the BBMV fraction isolated from kidney. […]

Na-Pi cotransporter [2] = molecular target: T1, Na-Pi cotransporter (Rattus norvegicus, UniProt Q9JJ09); test: Na+-gradient-dependent 32Pi uptake by intestinal BBMV; assay type: biochemical; conditions: 1 mM; for effect on initial 32P uptake by intestinal BBMV (in words): FIG. 4, Table 7; for 32Pi-phosphate uptake 30 sec: initial phase, rat small intestine BBMV, control 75 ± 3
T1 construct: The intestinal BBMV fractions were prepared from mucosa of rat small intestine; from tissue; host or cells: rat small intestine mucosa, brush border membrane vesicles
T1 sequence (Q9JJ09 1-695): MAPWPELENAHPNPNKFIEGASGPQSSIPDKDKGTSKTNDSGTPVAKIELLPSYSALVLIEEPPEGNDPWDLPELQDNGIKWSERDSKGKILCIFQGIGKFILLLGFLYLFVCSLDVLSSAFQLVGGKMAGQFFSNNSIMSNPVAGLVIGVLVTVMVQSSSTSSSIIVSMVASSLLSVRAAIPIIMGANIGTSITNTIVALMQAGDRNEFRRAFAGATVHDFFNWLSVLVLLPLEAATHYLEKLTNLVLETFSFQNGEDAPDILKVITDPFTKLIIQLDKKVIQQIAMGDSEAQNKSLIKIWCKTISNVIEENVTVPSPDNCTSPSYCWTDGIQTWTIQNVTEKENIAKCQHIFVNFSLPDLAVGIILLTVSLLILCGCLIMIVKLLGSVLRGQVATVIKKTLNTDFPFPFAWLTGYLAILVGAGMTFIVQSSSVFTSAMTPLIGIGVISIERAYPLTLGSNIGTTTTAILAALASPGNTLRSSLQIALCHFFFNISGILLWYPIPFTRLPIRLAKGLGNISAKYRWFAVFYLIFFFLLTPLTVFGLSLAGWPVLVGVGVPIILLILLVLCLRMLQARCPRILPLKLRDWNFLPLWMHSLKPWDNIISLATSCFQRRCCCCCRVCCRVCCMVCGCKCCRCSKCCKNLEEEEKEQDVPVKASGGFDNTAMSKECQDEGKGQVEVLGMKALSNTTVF
Experimental: (§1) The intestinal BBMV fractions were prepared from mucosa of rat small intestine of rats using the modified magnesium- precipitation method as described by B. Steiger and H. Murer [Eur. J. Biochem., 135, 95 (1983)]. This intestinal BBMV fraction is analogous to the BBMV fraction isolated from kidney. The uptake of ^32 Pi in the presence of Na^+ -gradient [Nao^+ >Nai^+ ] was determined by a rapid filtration technique similar to that employed in the transport measurements on renal BBMV. The Na^+ -gradient [Nao^+ >Nai^+ ]-dependent Pi uptake in the initial phase was measured after 30 sec. The ^32 Pi uptake at equilibrium was measured at 180 min.

Na-Pi cotransporter [3] = test: as above; assay type: biochemical, rat; conditions: 1 mM; equilibrium; rat small intestine BBMV; control 151 ± 4
Experimental: as §1

Structure (SMILES) | D-[3H]-glucose uptake 120 min [1] [pmoles/mg protein] | D-[3H]-glucose uptake 15 sec [1] [pmoles/mg protein] | effect on initial 32P uptake by intestinal BBMV (in words) (Na-Pi cotransporter [2]) | 32Pi-phosphate uptake 30 sec (Na-Pi cotransporter [2]) [pmoles/mg protein] | 32Pi-phosphate uptake 180 min (Na-Pi cotransporter [3]) [pmoles/mg protein]
O=C(O)CP(=O)(O)O [PAA, phosphonoacetic acid] | 61 ± 3 | 68 ± 3 | markedly inhibited | 51 ± 0.3 | 163 ± 6
O=C(O)P(=O)(O)O [TPFA, Phosphonoformic acid, trisodium salt hexahydrate] | 57 ± 2 | 69 ± 2 | markedly inhibited | 44 ± 2 | 146 ± 5
